Experimental data taken from PMC12677052, “Identification and rescue of congenital hyperinsulinism-associated ABCC8 mutations that impair KATP channel trafficking” (The Journal of Biological Chemistry, 2025).

What was measured:
Assay type in all cases: cell-based
[1] = target: T1, sulfonylurea receptor 1 (SUR1) (Homo sapiens, UniProt Q09428); test: Rb+ efflux inhibition in cells after […] overnight treatment and washout
T1 construct: gene ABCC8; human FLAG-tagged SUR1 (f-SUR1) coexpressed with human Kir6.2 in COSm6 cells; with Kir6.2 (KCNJ11)

[2] = target: T2, sulfonylurea receptor 1 (SUR1) (Homo sapiens, UniProt Q09428, Y124F); test: inside-out patch-clamp dose-response
T2 construct: gene ABCC8; human FLAG-tagged SUR1 (f-SUR1) coexpressed with human Kir6.2 in COSm6 cells; with Kir6.2 (KCNJ11)

[3] = target: T1, sulfonylurea receptor 1 (SUR1); test: inside-out patch-clamp dose-response
[4] = target: T3, sulfonylurea receptor 1 (SUR1) (Homo sapiens, UniProt Q09428, W143R); test: pharmacochaperone rescue in cells at […] (western blot, Rb+ efflux)
T3 construct: gene ABCC8; human FLAG-tagged SUR1 (f-SUR1) coexpressed with human Kir6.2 in COSm6 cells; with Kir6.2 (KCNJ11)
T3 sequence (Q09428 whole entry W143R): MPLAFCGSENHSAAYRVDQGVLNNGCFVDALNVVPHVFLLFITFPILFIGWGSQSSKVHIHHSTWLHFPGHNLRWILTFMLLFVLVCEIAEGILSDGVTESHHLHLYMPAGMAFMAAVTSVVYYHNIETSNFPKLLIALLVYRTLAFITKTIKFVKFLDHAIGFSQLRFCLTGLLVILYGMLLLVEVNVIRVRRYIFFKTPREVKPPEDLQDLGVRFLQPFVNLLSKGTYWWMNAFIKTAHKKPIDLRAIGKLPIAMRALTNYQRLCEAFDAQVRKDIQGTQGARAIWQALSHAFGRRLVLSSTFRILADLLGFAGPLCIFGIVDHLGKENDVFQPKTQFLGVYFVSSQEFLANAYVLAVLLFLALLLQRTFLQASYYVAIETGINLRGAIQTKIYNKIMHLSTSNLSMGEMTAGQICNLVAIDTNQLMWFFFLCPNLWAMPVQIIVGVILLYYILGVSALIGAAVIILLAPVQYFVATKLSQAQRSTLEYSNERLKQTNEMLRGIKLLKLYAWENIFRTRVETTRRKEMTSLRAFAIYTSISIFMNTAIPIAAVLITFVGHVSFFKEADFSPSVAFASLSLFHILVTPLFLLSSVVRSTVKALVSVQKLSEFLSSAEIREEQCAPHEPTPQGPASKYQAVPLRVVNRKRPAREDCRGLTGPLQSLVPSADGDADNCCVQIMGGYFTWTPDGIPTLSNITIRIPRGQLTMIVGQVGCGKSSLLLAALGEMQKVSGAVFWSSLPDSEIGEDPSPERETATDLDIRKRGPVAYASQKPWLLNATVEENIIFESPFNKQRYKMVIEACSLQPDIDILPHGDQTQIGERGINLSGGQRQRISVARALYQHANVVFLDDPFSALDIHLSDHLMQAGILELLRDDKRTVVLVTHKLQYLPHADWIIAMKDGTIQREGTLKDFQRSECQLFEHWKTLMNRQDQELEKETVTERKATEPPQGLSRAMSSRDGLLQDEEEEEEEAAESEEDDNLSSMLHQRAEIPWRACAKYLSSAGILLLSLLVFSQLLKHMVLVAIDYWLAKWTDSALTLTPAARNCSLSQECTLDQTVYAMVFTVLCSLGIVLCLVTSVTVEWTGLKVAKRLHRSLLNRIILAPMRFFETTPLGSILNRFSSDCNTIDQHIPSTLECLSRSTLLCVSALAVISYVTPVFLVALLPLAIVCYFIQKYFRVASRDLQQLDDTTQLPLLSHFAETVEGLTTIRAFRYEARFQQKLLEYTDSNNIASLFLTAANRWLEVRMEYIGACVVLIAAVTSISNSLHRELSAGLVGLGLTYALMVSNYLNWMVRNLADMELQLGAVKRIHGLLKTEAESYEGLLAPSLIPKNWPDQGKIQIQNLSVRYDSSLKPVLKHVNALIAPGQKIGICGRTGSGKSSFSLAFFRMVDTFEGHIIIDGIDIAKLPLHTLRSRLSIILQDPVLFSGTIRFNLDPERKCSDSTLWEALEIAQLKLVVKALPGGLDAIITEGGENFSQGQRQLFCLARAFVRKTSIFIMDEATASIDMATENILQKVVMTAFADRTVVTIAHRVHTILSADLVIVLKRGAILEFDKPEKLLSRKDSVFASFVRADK
T3 sequence (Q14654 whole entry partner): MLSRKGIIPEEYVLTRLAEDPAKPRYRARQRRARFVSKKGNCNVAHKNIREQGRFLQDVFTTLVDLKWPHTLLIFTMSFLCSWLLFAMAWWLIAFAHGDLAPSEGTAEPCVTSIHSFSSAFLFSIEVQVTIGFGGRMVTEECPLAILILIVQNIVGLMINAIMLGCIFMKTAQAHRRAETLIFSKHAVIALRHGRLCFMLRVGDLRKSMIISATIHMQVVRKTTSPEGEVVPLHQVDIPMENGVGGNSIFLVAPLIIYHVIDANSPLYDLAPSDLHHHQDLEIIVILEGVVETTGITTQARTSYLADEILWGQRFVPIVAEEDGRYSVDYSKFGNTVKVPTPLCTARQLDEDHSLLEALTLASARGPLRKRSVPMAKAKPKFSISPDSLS

T1 sequence (Q09428 whole entry): as the sequence (Q09428 whole entry W143R) above, with R143W counted along it
T1 sequence (Q14654 whole entry partner): as the sequence (Q14654 whole entry partner) above
T2 sequence (Q09428 whole entry Y124F): as the sequence (Q09428 whole entry W143R) above, with Y124F, R143W counted along it
T2 sequence (Q14654 whole entry, further chain): as the sequence (Q14654 whole entry partner) above

`COc1ccc(Cl)cc1C(=O)NCCc1ccc(S(=O)(=O)NC(=O)NC2CCCCC2)cc1` [GBC, glibenclamide] was tested, and the “Rb+ efflux inhibition in cells after 10 μM overnight treatment and washout” value [1] was “This reduction is due to GBC inhibition of channels already present at the cell surface”.
In the case of `Nc1ncnc2c1ncn2[C@@H]1O[C@H](COP(=O)(O)OP(=O)(O)O)[C@@H](O)[C@H]1O` [MgADP], the EC50 [2] is reported as 224 ± 47.9 µM and the EC50 [3] is reported as 62.2 ± 18.8 µM.
For `CCCCNC(=O)NS(=O)(=O)c1ccc(C)cc1` [Tolb, tolbutamide], the “pharmacochaperone rescue in cells at 200 μM (western blot, Rb+ efflux)” value [4] was “N32K, P133R, W143R, and Y230C mutations showed clear albeit variable response to the three pharmacochaperones”.
